Publication PMC10002517, “Inhibition of Transglutaminase 2 as a Therapeutic Strategy in Celiac Disease—In Vitro Studies in Intestinal Cells and Duodenal Biopsies” (International Journal of Molecular Sciences, 2023)
Values belong to the molecule of their own block, whether it stands above or below them.

What was measured:
[1] = molecular target: T1, TG2 in the intestinal lamina propria (Homo sapiens, UniProt P21980); assay: TG2 activity in cryosections of duodenal biopsies from CD patients (5BP, confocal microscopy); format: biochemical; details: increasing amounts of DTT in the incubation buffer
T1 construct: from tissue; host or cells: duodenal biopsies from celiac disease patients (unfixed 400 nm cryosections, lamina propria)
T1 sequence (P21980 1-687): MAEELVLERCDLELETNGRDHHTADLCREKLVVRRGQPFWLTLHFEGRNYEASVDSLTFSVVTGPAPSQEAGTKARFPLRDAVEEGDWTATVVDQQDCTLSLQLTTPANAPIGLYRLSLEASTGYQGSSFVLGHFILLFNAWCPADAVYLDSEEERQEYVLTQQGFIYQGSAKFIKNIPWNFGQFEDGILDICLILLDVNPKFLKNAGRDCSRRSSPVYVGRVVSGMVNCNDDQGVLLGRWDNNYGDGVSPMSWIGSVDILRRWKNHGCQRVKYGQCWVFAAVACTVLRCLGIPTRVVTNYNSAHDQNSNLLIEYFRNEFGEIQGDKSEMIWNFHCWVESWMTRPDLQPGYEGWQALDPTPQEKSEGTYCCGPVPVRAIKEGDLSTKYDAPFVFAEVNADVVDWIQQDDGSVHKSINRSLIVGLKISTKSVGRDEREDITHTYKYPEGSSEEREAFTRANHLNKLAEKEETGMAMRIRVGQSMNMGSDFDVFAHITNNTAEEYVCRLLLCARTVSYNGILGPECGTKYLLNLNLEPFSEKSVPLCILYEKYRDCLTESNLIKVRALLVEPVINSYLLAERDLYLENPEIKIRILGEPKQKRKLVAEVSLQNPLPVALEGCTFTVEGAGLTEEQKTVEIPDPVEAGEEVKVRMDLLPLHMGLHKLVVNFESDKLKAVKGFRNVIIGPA
Description: For immunofluorescence microscopic investigation of transglutaminase activity, only biopsies with minor macroscopic inflammatory signs were used. After endoscopy, biopsies were immediately washed three times in PBS and cryopreserved in polyvinylpyrrolidone sucrose at 4 °C overnight. Biopsies were mounted on specimen holders using Tissue-Tek O.C.T (Sakura Finetek, Staufen im Breisgau, Germany) compound and frozen in liquid nitrogen. For evaluation of transglutaminase activity by the post-embedding procedure, 400 nm cryosections were obtained using a cryo-ultramicrotome (Leica EM UC6, Leica, Wetzlar, Germany) and mounted on class cover slides. After three brief washes with PBS, tissue sections were incubated with the indicated concentrations of the inhibitors for 1 h in tris buffer. Then, the TG2 substrate 5BP was incubated for 1 h at 37 °C in tris buffer containing DTT at the indicated concentration. Slides were washed three times in PBS, fixed in 4% paraformaldehyde (10 min), permeabilized with 0.5% Triton (10 min) and incubated with blocking solution (0.1% cold water fish skin gelatin + 5% BSA + 5% goat serum, 10 min). Afterwards, a rabbit polyclonal antibody directed against human TG2 (Kan5, kindly provided by Dr T. Mothes, Institute of Laboratory Medicine, University Hospital Leipzig, Germany) was applied at 1:200 dilution in blocking solution overnight at 4 °C. After three washing steps (each 5 min) with PBS, Alexa Fluor-555-conjugated secondary antibody (goat-anti-rabbit, 1:200, Thermo Fisher Scientific) and Alexa Fluor-488-conjugated streptavidin (2 µg/mL, Thermo Fisher Scientific) were incubated at room temperature in the dark for 1 h. After three washes with PBS, samples were covered in ProLong Gold antifade mountant (Thermo Fisher Scientific) and sealed with clear nail polish. Sealed slides were stored in the dark at 4 °C until microscopy.
Imaging was done using a confocal laser scanning microscope (TE2000-E, Nikon, Langen, Germany) and a 60× Plan Apo (NA 1.41) immersion oil objective. The detailed acquisition settings and the corresponding macro (Image J [46]) for image processing can be accessed in the Supplementary Materials methods (S1). Five images per patient where quantified. For quantitation, mean fluorescence intensity of TG2 activity (488 nm channel) was normalized to TG2 expression (555 nm channel) within the intestinal lamina propria.

[2] = molecular target: T2, TG2 in Caco-2 cell lysates (Homo sapiens, UniProt P21980); assay: Transglutaminase activity in Caco-2 whole cell lysates (5BP cross-linking); format: biochemical; details: mean ± SD, n = 3
T2 construct: endogenous in cells; host or cells: Caco-2 (differentiated; IFN-γ-stimulated in the monolayer assay)
T2 sequence (P21980 1-687): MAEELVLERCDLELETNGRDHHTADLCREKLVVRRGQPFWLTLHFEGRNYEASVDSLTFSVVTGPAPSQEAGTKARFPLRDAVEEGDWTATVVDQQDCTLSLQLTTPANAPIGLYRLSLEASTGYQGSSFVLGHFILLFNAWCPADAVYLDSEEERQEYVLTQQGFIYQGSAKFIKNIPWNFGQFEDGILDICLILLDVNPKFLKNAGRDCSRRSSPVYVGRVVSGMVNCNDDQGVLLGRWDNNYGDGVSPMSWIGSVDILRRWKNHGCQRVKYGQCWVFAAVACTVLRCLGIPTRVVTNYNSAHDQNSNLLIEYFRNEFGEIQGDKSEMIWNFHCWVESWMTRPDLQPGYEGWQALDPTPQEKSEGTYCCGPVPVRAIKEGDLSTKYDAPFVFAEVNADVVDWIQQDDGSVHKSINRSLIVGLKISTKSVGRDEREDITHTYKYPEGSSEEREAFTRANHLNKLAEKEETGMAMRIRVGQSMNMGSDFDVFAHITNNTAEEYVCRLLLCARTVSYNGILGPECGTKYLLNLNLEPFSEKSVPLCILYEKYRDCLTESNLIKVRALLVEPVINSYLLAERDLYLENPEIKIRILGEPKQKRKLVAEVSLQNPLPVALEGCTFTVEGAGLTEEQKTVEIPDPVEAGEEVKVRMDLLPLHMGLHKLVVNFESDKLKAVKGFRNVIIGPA
Description: The method to investigate TG2 activity from whole cell lysates was adapted from Lin et al.. In brief, 20 µg protein per cavity on the 96-well plate were incubated in 50 mM Tris, 1 mM EDTA, 5 mM calcium chloride (pH 7.5) buffer in the presence of 500 µM 5BP (5-biotinamidopentylamine, Thermo Fisher Scientific, Langenselbold, Germany) for the indicated time. After incubation, the plate was washed three times with PBS + 0.05% Tween. After blocking with 5% BSA in PBS for 1 h, the plate was incubated with 2 µg/mL streptavidin-Alexa Fluor 488 (Thermo Fisher Scientific) in 5% BSA. After 3 washing steps with PBS + 0.05% Tween, fluorometric evaluation was performed using a Clariostar Plus (BMG Labtech) microplate reader (no well scan mode, excitation 488 nm, emission 535 nm, fixed gain: 2000).

[3] = molecular target: T3, extracellular TG2 on Caco-2 cells (Homo sapiens, UniProt P21980); assay: Extracellular TG2 activity on confluent Caco-2 cell monolayers (5BP cross-linking); format: cell-based; details: for TG2-mediated crosslinking: 1 mM DTT, 3 h with 5BP, mean ± SD, n = 4
T3 construct: endogenous in cells; host or cells: Caco-2 (differentiated; IFN-γ-stimulated in the monolayer assay)
T3 sequence (P21980 1-687): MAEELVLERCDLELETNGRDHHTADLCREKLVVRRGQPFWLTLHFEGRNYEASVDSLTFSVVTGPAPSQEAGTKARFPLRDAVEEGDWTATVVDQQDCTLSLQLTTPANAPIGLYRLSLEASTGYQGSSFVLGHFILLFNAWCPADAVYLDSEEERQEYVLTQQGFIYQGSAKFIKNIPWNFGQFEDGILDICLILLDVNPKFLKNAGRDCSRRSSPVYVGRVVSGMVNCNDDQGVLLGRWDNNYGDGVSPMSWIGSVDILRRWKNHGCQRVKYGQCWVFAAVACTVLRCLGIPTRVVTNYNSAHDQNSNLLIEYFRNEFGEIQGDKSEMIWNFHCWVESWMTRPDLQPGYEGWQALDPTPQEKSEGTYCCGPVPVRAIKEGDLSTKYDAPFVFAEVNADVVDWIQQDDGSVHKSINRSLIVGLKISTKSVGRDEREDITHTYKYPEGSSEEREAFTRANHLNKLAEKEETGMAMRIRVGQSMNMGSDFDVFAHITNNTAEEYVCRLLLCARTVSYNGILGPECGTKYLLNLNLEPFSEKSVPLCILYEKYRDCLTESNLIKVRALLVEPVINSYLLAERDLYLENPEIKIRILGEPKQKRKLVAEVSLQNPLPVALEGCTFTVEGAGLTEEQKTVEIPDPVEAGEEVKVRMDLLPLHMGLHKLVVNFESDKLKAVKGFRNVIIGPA
Description: The method was adapted from Yi et al.. To induce TG2 expression, Caco-2 cells were stimulated with IFN-γ 1000 IU/mL for 48 h. Then, cells were washed three times with warm PBS and incubated with the substrate 5BP for 3 h at 37 °C in 50 mM Tris and 1 mM EDTA (pH 7.5). The substances ERW1041, PX-12 and DTT were added to this solution when indicated. After incubation, cells were washed three times with PBS, fixed with 4% paraformaldehyde for 10 min and blocked with 5% BSA in PBS at 4 °C overnight. Then, cells were incubated at room temperature with streptavidin-Alexa488 (Thermo Scientific, 4 µg/mL) in 5% BSA in the dark for 1 h, followed by three washes with PBS. Fluorometric quantitation was conducted using a FLUOstar Optima microplate reader (BMG Labtech, filter settings: excitation 485 nm, emission 525 nm). Manual gain adjustment was performed, setting the well with the most intense signal as 95%. In all experiments, data were background subtracted against a control without 5BP substrate.

T-cell stimulation = details: cited from earlier work
Excerpt: Even though our results underline the significance of TG2 inhibition, further research is needed to investigate the effects of those inhibitors on gliadin-induced inflammation. In recent studies, these inflammatory mechanisms were only partially mitigated by inhibition of TG2.

[4] = tested on: gliadin peptide uptake (P31-43 and P57-68); details: cited from earlier work
Excerpt: Since TG2 is expressed on the surface of epithelial cells and plays a role in transcytosis, we aimed to investigate the effect of TG2 inhibitors on the epithelial uptake of gliadin peptides. First, we confirmed the results from Caputo et al. and Zimmermann et al. by showing that the translocation of P31-43, but not of P56-88, was inhibited by the endocytosis inhibitor MBCD [21, 37].

[5] = tested on: transepithelial passage of P31-43 in Caco-2 cells; assay: Transepithelial transport of promofluor-conjugated gliadin peptide P31-43 across Caco-2 monolayers (fluorometry); format: cell-based, human; details: Caco-2 monolayer on transwell, A-B, 7 µg/mL in HBSS, 3 h, TEER >= 350 Ω/cm^2, fluorometry
Description: (§1) Transepithelial transport of immunogenic and toxic gliadin peptides were examined in Caco-2 cells 7–14 days after confluency. Caco-2 cells were seeded on semi-permeable transwell supports (ThinCert, culture surface: 33.6 mm², pore size: 0.4 µm) in 24-well plates (Greiner Bio One, Pleidelsheim, Germany). Prior to the transport experiments, the integrity of the cell monolayer was tested by measuring the transepithelial electric resistance (TEER) using a volt-ohm meter (Millipore, Schwalbach, Germany). Monolayers with insufficient TEER (<350 Ω/cm^2) were omitted. The synthesis and purification of promofluor-conjugated gliadin peptides were described elsewhere. Cells were either incubated with the immunogenic peptide P56-88 ([…]) or the toxic gliadin peptide P31-43 (LGQQQPFPPQQPY), 7 µg/mL each, in Hank’s balanced salt solution (HBSS) for 3 h. To investigate the role of TG2 on the transport of gliadin peptides, incubation was performed in the presence of ERW1041 and PX-12. After 3 h, basal and apical supernatants were collected, and the relative fluorescence of the basal compartment was quantified using a FLUOstar Optima (BMG Labtech) microplate reader. Background subtraction was performed against conditions, where no labeled peptides were used. Normalization was performed against conditions, where no inhibitors were used.

[6] = tested on: uptake of P56-88 by Caco-2 cells; assay: Epithelial uptake of P56-88 by Caco-2 cells (confocal microscopy); format: cell-based, human; details: 1 h incubation; z-stack imaging and 3D reconstruction
Description: For microscopic evaluation, Caco-2 cells were seeded on polymer-covered µ-slides (80826, Ibidi) and incubated for 1 h with labeled gliadin peptides in the presence of TG2 inhibitors. After three washes with PBS, cells were fixed with 4% paraformaldehyde. Nuclear staining was performed for 10 min using Hoechst fluorescent stain (1:1000 in PBS). Imaging was done using a confocal laser scanning microscope (TE2000-E, Nikon) and a 60× Plan Apo (NA 1.41) immersion oil objective. Processing of z-stacks, including 3D reconstruction, was performed using ImageJ [46]. For quantitation, z-stack images were taken with the same microscope settings. Using ImageJ, maximum intensity projections were obtained of the z-stack images, and the fluorescence intensity was measured within the whole image.

[7] = tested on: transepithelial passage of P56-88 in Caco-2 cells; assay: Transepithelial transport of promofluor-conjugated gliadin peptide P56-88 across Caco-2 monolayers (fluorometry); format: cell-based, human; details: Caco-2 monolayer on transwell, A-B, 7 µg/mL in HBSS, 3 h, TEER >= 350 Ω/cm^2, fluorometry
Description: as §1

- TG2 activity in Caco-2 cell lysates ([2]; protein lysate treated with 10 mM DTT for 1 h): 395 ± 21%
- TG2-mediated crosslinking ([3]; IFN-γ-stimulated Caco-2 cells, not significant): 123 ± 24%
- TG2-mediated crosslinking ([3]; non-stimulated Caco-2 cells): 141 ± 17%
Molecule: O[C@@H](CS)[C@@H](O)CS (racemic) [DTT, dithiothreitol]
- effect of DTT on TG2 activity in cryopreserved tissue sections [1]: enhanced TG2 activity in the cryopreserved tissue in a dose-dependent manner

Molecule: NCCSSCCN [cystamine]
- CD patients in whom T-cell stimulation was prevented (T-cell stimulation): 50%
- effect on gliadin peptide uptake (P31-43 and P57-68) [4]: did not show an effect

Molecule: LGQQQPFPPQQPY [P31-43]
- translocation from the apical to the basal compartment [5]: detected in the basal compartment

Molecule: LQLQPFPQPQLPYPQPQLPYPQPQLPYPQPQPF [P56-88]
- cellular localization of the peptide [6]: localized in the supranuclear cell region
- translocation from the apical to the basal compartment [7]: detected in the basal compartment

- increase of extracellular TG2 activity after IFN-γ stimulation ([3]; 1000 IU/mL IFN-γ, 48 h): about 4 times
B1: IFN-γ: key cytokine of the Th1-driven inflammation in CD, recognized inducer of TG2 expression (protein, UniProt P01579 24-161, looked up)
Interferon gamma: QDPYVKEAENLKKYFNAGHSDVADNGTLFLGILKNWKEESDRKIMQSQIVSFYFKLFKNFKDDQSIQKSVETIKEDMNVKFFNSNKKKRDDFEKLTNYSVTDLNVQRKAIHELIQVMAELSPAAKTGKRKRSQMLFRG
- TG2 activity in Caco-2 cell lysates ([2]; Caco-2 cells treated with 500 IU/mL IFN-γ for 48 h): 760 ± 259%
